Read-outs that look alike come from different tables or passages of the source.
Tests used:
184A1 = experiment: MTT assay, 184A1 cells, 72 h; assay type: cell-based; conditions: read-out: IC50 (nM) ± SD (n) 184A1, 184A1 noncancerous Nampt-dependent human breast epithelium cells, n=4
recombinant Nampt [1] = target: T1, recombinant Nampt (Homo sapiens, UniProt P43490); experiment: Recombinant Nampt inhibition assay; assay type: biochemical; conditions: read-out: IC50, inhibition of recombinant Nampt activity; colorimetric assay
[2] = continuous intravenous infusion for 4 consecutive days, patients; cited from earlier work
recombinant Nampt [3] = target: T1, recombinant Nampt; conditions: cited from earlier work

T1 sequence (P43490 whole entry, the tested form may be a part): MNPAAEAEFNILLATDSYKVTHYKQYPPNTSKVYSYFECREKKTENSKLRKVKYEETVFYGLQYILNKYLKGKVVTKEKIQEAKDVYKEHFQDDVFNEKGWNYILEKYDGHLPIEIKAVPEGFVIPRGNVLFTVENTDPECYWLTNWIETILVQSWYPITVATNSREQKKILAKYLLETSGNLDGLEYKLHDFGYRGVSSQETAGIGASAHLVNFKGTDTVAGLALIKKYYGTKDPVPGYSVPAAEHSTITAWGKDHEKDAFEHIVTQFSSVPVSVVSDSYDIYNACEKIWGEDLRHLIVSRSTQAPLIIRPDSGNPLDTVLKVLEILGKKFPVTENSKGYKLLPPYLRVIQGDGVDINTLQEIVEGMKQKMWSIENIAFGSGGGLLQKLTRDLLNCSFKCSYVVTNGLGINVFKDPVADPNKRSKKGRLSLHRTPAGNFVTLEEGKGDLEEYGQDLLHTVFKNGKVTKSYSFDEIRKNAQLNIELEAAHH

1-(hydroxymethyl)-7-(4′-(trans-3″-(3′″-pyridyl)acrylamido)butyl)-1,7-dicarbadodecaborane [hm-MC4-PPEA]
IC50 (184A1): 1.9 ± 0.4 nM
IC50 (recombinant Nampt [1]): 6.8 nM

O=C(/C=C/c1cccnc1)NCCCCC1CCN(C(=O)c2ccccc2)CC1 [FK866]
dose-limiting toxicity [2]: thrombocytopenia

1-(4′-(trans-3″-(3‴-pyridyl)acrylamido)butyl)-1,7-dicarbadodecaborane [MC4-PPEA]
IC50 (recombinant Nampt [3]; read-out: IC50, inhibition of Nampt, previously reported): 4.2 nM
fold higher Nampt inhibitory activity than FK866 (recombinant Nampt [3]; relative to FK866): ~ 100 fold
